Measurements from patent US12503437B2, “1,1-dimethyl-2-[(E)-2-phenylethenyl]-1H-benzo[e]indole derivatives and uses thereof” (Kaunas University of Technology, priority 2023, dated 2025).
Like-named read-outs stand apart in the source and are kept apart here.

Experiments:
[1] = Absorption and fluorescence properties in water; assay type: physicochemical; conditions: for λem: excitation wavelength 380 nm
Procedure: To determine the wavelength of light, at which 1,1-dimethyl-2-[(E)-2-phenylethenyl]-1H-benzo[e]indole derivatives should be irradiated for the investigation of their photodynamic activity, the absorption and fluorescence properties thereof were measured in water. The excitation wavelength λex was set to 380 nm. Based on the results an in-house constructed LED based light source specifically designed for the irradiation of 96-well microplates and Petri dishes (Tomecka et al., CZ302829B6, 2006) was chosen, with a maximal wavelength emission of 414 nm and light intensity set to 20 mW/cm^2.

[2] = system: G361 cells (human skin melanoma); test: MTT cell viability assay with photodynamic treatment; assay type: cell-based; conditions: 4 h treatment, further 72 h, MTT
Procedure: For photodynamic treatments, G361 cells (human skin melanoma) were cultivated in DMEM medium without phenol red supplemented with 10% fetal bovine serum, 100 U/mL penicillin, 100 μg/mL streptomycin, 2 mM glutamine, at 37° C. in 5% CO2 atmosphere. Cells were treated with test compounds and after 4 h were irradiated (the maximal wavelength emission of 414 nm and different total doses up to 10 J/cm^2). Further cultivation lasted for subsequent 16, 24 or 72 h.
Cell viability (EC50) was determined using the MTT (Sigma-Aldrich) assay in 96-well microplates. Cells were seeded, next day treated with test compounds for 4 h and subsequently irradiated (the maximal wavelength emission of 414 nm and total dose of 2.5 and 10 J/cm^2). After irradiation, the cells were incubated for further 72 h and then the MTT solution was added. Cells were incubated for another 4 h at 37° C. and then the 0.1% SDS was added to the wells to solubilize the violet formazan crystals. The measurement of absorbance was carried out on reader Tecan Infinite M200Pro at 570 nm. Dark viability was measured in parallel under the same conditions without irradiation.

[3] = G-361, dark kept G361 cells, read-out: G361 - EC50, Dark
[4] = G-361, light or radiation study, light irradiated (414 nm, 10 J/cm^2) G361 cells, irradiation, read-out: G361 - EC50, 10 J/cm^2

| Stokes shift [1] | λabs [1] | λem [1] | EC50 [2, 3] | EC50 [2, 4] | Compound |
| --- | --- | --- | --- | --- | --- |
| 133 nm | 397 nm | 530 nm | 5800 nM | 2000 nM | CC1(C)C(/C=C/c2ccccc2)=Nc2ccc3ccccc3c21 [Compound 3a, 1,1-Dimethyl-2-[(E)-2-phenylethenyl]-1H-benzo[e]indole] |
| 109 nm | 400 nm | 509 nm | > 10000 nM | 1300 nM | CC1(C)C(/C=C/c2cc(C(F)(F)F)cc(C(F)(F)F)c2)=Nc2ccc3ccccc3c21 [Compound 3b, 2-{(E)-2-[3,5-Bis(trifluoromethyl)phenyl]ethenyl}-1,1-dimethyl-1H-benzo[e]indole] |
| 98 nm | 443 nm | 541 nm | 6900 nM | 1200 nM | CC1(C)C(/C=C/c2cc([N+](=O)[O-])ccc2Cl)=Nc2ccc3ccccc3c21 [Compound 3c, 2-[(E)-2-(2-Chloro-5-nitrophenyl)ethenyl]-1,1-dimethyl-1H-benzo[e]indole] |
| 102 nm | 430 nm | 532 nm | 7300 nM | 4100 nM | CC1(C)C(/C=C/c2ccc(F)cc2)=Nc2ccc3ccccc3c21 [Compound 3d, 2-[(E)-2-(4-Fluorophenyl)ethenyl]-1,1-dimethyl-1H-benzo[e]indole] |
| 116 nm | 415 nm | 531 nm | 3600 nM | 500 nM | CC1(C)C(/C=C/c2ccc(C(F)(F)F)cc2)=Nc2ccc3ccccc3c21 [Compound 3e, 1,1-Dimethyl-2-{(E)-2-[4-(trifluoromethyl)phenyl]ethenyl}-1H-benzo[e]indole] |
| 146 nm | 403 nm | 549 nm | 4900 nM | 200 nM | COc1ccc(/C=C/C2=Nc3ccc4ccccc4c3C2(C)C)cc1[N+](=O)[O-] [Compound 3f, 2-[(E)-2-(4-Methoxy-3-nitrophenyl)ethenyl]-1,1-dimethyl-1H-benzo[e]indole] |
| 106 nm | 426 nm | 532 nm | 7200 nM | 300 nM | CC1(C)C(/C=C/c2ccc(Cl)c([N+](=O)[O-])c2)=Nc2ccc3ccccc3c21 [Compound 3h, 2-[(E)-2-(4-Chloro-3-nitrophenyl)ethenyl]-1,1-dimethyl-1H-benzo[e]indole] |
| 126 nm | 399 nm | 525 nm | 7800 nM | 2100 nM | CC1(C)C(/C=C/c2ccc(F)c([N+](=O)[O-])c2)=Nc2ccc3ccccc3c21 [Compound 3i, 2-(E)-2-(4-Fluoro-3-nitrophenyl)ethenyl-1,1-dimethyl-1H-benzo[e]indole] |
| 154 nm | 369 nm | 523 nm | 5100 nM | 1300 nM | CC1(C)C(/C=C/c2ccc(F)c(C#N)c2)=Nc2ccc3ccccc3c21 [Compound 3j, 5-[(E)-2-(1,1-Dimethyl-1H-benzo[e]indol-2-yl)ethenyl]-2-fluorobenzonitrile] |
| 98 nm | 425 nm | 523 nm | 6900 nM | 1300 nM | Cc1ccc(/C=C/C2=Nc3ccc4ccccc4c3C2(C)C)cc1[N+](=O)[O-] [Compound 3k, 1,1-Dimethyl-2-[(E)-2-(4-methyl-3-nitrophenyl)ethenyl]-1H-benzo[e]indole] |
| 86 nm | 437 nm | 523 nm | > 10000 nM | 1300 nM | CC1(C)C(/C=C/c2ccc3ccccc3c2)=Nc2ccc3ccccc3c21 [Compound 3l, 1,1-Dimethyl-2-[(E)-2-(naphthalen-2-yl)ethenyl]-1H-benzo[e]indole] |
| 89 nm | 424 nm | 513 nm | 2100 nM | 300 nM | CC1(C)C(/C=C/c2cccc([N+](=O)[O-])c2)=Nc2ccc3ccccc3c21 [Compound 3m, 1,1-Dimethyl-2-[(E)-2-(3-nitrophenyl)ethenyl]-1H-benzo[e]indole] |
| 94 nm | 426 nm | 520 nm | 7800 nM | 1300 nM | CC1(C)C(/C=C/c2cccc(C(F)(F)F)c2)=Nc2ccc3ccccc3c21 [Compound 3n, 1,1-Dimethyl-2-{(E)-2-[3-(trifluoromethyl)phenyl]ethenyl}-1H-benzo[e]indole] |
| 113 nm | 445 nm | 558 nm | > 10000 nM | 400 nM | CC1(C)C(/C=C/c2cccc3ccccc23)=Nc2ccc3ccccc3c21 [Compound 3o, 1,1-Dimethyl-2-[(E)-2-(naphthalen-1-yl)ethenyl]-1H-benzo[e]indole] |
| 132 nm | 434 nm | 566 nm | 7800 nM | 1100 nM | CC1(C)C(/C=C/c2ccccc2[N+](=O)[O-])=Nc2ccc3ccccc3c21 [Compound 3p, 1,1-Dimethyl-2-[(E)-2-(2-nitrophenyl)ethenyl]-1H-benzo[e]indole] |
